Consider 4 compounds from article PMC6783499, “Heteroglycoclusters With Dual Nanomolar Affinities for the Lectins LecA and LecB From Pseudomonas aeruginosa” (Frontiers in Chemistry, 2019).

Several values for one entry are separate records, joined by “and”; a condition that tells them apart may be missing. Equal values may be shown once.

For the test, the target named is T1, LecA (Pseudomonas aeruginosa, UniProt Q05097).
T1 construct: made in house; host or cells: Escherichia coli BL21(DE3)
Description: biochemical. In kind it is binding. Conditions: for n (stoichiometry, glycocluster molecules per lectin monomer) / –ΔG / –ΔH / −TΔS / –ΔH (binding enthalpy): ITC; for n (stoichiometry, glycocluster molecules per lectin monomer) / –ΔG / –ΔH / −TΔS: 25°C; for n (stoichiometry, glycocluster molecules per lectin monomer): pH 7.5; for –ΔG / –ΔH / −TΔS: per mole of glycocluster; for α (relative potency compared to the monovalent compound) / β (relative potency per sugar unit): relative to βGal-OMe. How it is done:
The resulting hGCs were tested in solution with lectins by Isothermal Titration Calorimetry (Table 1) and their binding properties were compared with homoclusters 15–20 (Berthet et al., [2013]; Thomas et al., [2015b]) displaying either 4 and 16 βGal or αFuc units attached with an oxime or a triazole linker (Figure 3). […] Experiments were performed in direct injection mode (i.e., ligand in syringe and protein in cell) to minimize aggregation problems.
All chemical reagents were purchased from Aldrich (Saint Quentin Fallavier, France) or Acros (Noisy-Le-Grand, France). All protected amino acids and Fmoc-Gly-Sasrin® resin was obtained from Advanced ChemTech Europe (Brussels, Belgium). For peptides and glycopeptides, analytical RP-HPLC was performed on Waters system equipped with a Waters 2695 separations module and a Waters 2487 Dual Absorbance UV/Visible Detector. Analysis was carried out at 1.0 mL/min (EC 125/3 nucleosil 300-5 C18) with UV monitoring at 214 nm and 250 nm using a linear A–B gradient (buffer A: 0.09% CF3CO2H in water; buffer B: 0.09% CF3CO2H in 90% acetonitrile). Purifications were carried out at 22.0 mL/min (VP 250/21 nucleosil 100-7 C18) with UV monitoring at 214 nm and 250 nm using a linear A–B gradient. HRMS and ESI-MS and HRMS spectra of peptides and glycopeptides were measured on an Esquire 3000 spectrometer from Bruker. Lectins LecA and LecB were produced in recombinant form in Escherichia coli BL21(DE3) as described previously (Mitchell et al., [2005]; Blanchard et al., [2008]).
Other compounds were assayed with a VP-ITC isothermal titration calorimeter (Microcal). The experiments were carried out at 25°C. All glycocompounds and lectins LecB and LecA were dissolved in the same buffer composed of 20 mM Tris with 100 mM NaCl and 0.1 mM CaCl2 at pH 7.5. For PEAQ-ITC, the lectins were placed in the microcalorimeter cell (200 μL) at concentrations varying from 35 to 70 μM. […] For VP-ITC, the microcalorimeter cell (1.447 mL) contained the lectins with concentrations between 30 and 100 μM. […] The experimental data were fitted to a theoretical titration curve using the Microcal PEAQ-ITC analysis software, with ΔH (enthalpy change), Ka (association constant), and N (number of binding sites per monomer) as adjustable parameters. Dissociation constant (Kd), free energy change (ΔG), and entropy contributions (TΔS) were derived from the previous ones. Two or three independent titrations were performed for each ligand tested.

T1 sequence (Q05097 whole entry): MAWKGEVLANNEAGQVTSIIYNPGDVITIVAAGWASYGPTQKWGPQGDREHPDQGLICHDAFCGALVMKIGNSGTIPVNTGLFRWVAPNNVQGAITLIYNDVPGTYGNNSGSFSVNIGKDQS

As for `C[C@@H]1NC(=O)[C@H](CCCCn2cc(CO[C@@H]3O[C@H](CO)[C@H](O)[C@H](O)[C@H]3O)nn2)NC(=O)CNC(=O)[C@@H]2CCCN2C(=O)[C@H](CCCCn2cc(CO[C@@H]3O[C@H](CO)[C@H](O)[C@H](O)[C@H]3O)nn2)NC(=O)[C@H](CCCCN)NC(=O)[C@H](CCCCn2cc(CO[C@@H]3O[C@H](CO)[C@H](O)[C@H](O)[C@H]3O)nn2)NC(=O)CNC(=O)[C@@H]2CCCN2C(=O)[C@H](CCCCn2cc(CO[C@@H]3O[C@H](CO)[C@H](O)[C@H](O)[C@H]3O)nn2)NC1=O` [Compound 18], for the setting “LecA”, the “n (stoichiometry, glycocluster molecules per lectin monomer)” value is reported as 0.26; the “–ΔG” value worked out at 10.5 kcal/mol; the “–ΔH” value stood at 33.22 ± 0.24 kcal/mol; the “−TΔS” value amounted to 22.8 kcal/mol. Under “LecA”, the “α (relative potency compared to the monovalent compound)” value is 7,000 and 6,818; the “β (relative potency per sugar unit)” value is 1,700 and 1,705.
For the compound `CO[C@@H]1O[C@H](CO)[C@H](O)[C@H](O)[C@H]1O` [βGal-OMe, methyl β-D-galactoside], under “LecA”, the “α (relative potency compared to the monovalent compound)” value is reported as 1 and the “β (relative potency per sugar unit)” value is listed as 1.
The term Kd denotes a measure of binding affinity in units of concentration. Compound `C[C@@H]1NC(=O)[C@H](CCCCNC(=O)/C=N/O[C@H]2O[C@H](CO)[C@@H](O)[C@H](O)[C@@H]2O)NC(=O)CNC(=O)[C@@H]2CCCN2C(=O)[C@H](CCCCNC(=O)/C=N/O[C@H]2O[C@H](CO)[C@@H](O)[C@H](O)[C@@H]2O)NC(=O)[C@H](CCCCNC(=O)CO/N=C/C(=O)NCCCC[C@@H]2NC(=O)CNC(=O)[C@@H]3CCCN3C(=O)[C@H](CCCCNC(=O)/C=N/OCC(=O)NCCCC[C@@H]3NC(=O)[C@H](CCCCNC(=O)/C=N/O[C@H]4O[C@H](CO)[C@@H](O)[C@H](O)[C@@H]4O)NC(=O)CNC(=O)[C@@H]4CCCN4C(=O)[C@H](CCCCNC(=O)/C=N/O[C@H]4O[C@H](CO)[C@@H](O)[C@H](O)[C@@H]4O)NC(=O)[C@H](C)NC(=O)[C@H](CCCCNC(=O)/C=N/O[C@H]4O[C@H](CO)[C@@H](O)[C@H](O)[C@@H]4O)NC(=O)CNC(=O)[C@@H]4CCCN4C(=O)[C@H](CCCCNC(=O)/C=N/O[C@H]4O[C@H](CO)[C@@H](O)[C@H](O)[C@@H]4O)NC3=O)NC(=O)[C@H](CCCCN)NC(=O)[C@H](CCCCNC(=O)CO/N=C/C(=O)NCCCC[C@@H]3NC(=O)[C@H](CCCCn4cc(CO[C@@H]5O[C@H](CO)[C@H](O)[C@H](O)[C@H]5O)nn4)NC(=O)CNC(=O)[C@@H]4CCCN4C(=O)[C@H](CCCCn4cc(CO[C@@H]5O[C@H](CO)[C@H](O)[C@H](O)[C@H]5O)nn4)NC(=O)[C@H](C)NC(=O)[C@H](CCCCn4cc(CO[C@@H]5O[C@H](CO)[C@H](O)[C@H](O)[C@H]5O)nn4)NC(=O)CNC(=O)[C@@H]4CCCN4C(=O)[C@H](CCCCn4cc(CO[C@@H]5O[C@H](CO)[C@H](O)[C@H](O)[C@H]5O)nn4)NC3=O)NC(=O)CNC(=O)[C@@H]3CCCN3C(=O)[C@H](CCCCNC(=O)CO/N=C/C(=O)NCCCC[C@@H]3NC(=O)[C@H](CCCCn4cc(CO[C@@H]5O[C@H](CO)[C@H](O)[C@H](O)[C@H]5O)nn4)NC(=O)CNC(=O)[C@@H]4CCCN4C(=O)[C@H](CCCCn4cc(CO[C@@H]5O[C@H](CO)[C@H](O)[C@H](O)[C@H]5O)nn4)NC(=O)[C@H](C)NC(=O)[C@H](CCCCn4cc(CO[C@@H]5O[C@H](CO)[C@H](O)[C@H](O)[C@H]5O)nn4)NC(=O)CNC(=O)[C@@H]4CCCN4C(=O)[C@H](CCCCn4cc(CO[C@@H]5O[C@H](CO)[C@H](O)[C@H](O)[C@H]5O)nn4)NC3=O)NC(=O)[C@H](C)NC2=O)NC(=O)[C@H](CCCCNC(=O)/C=N/O[C@H]2O[C@H](CO)[C@@H](O)[C@H](O)[C@@H]2O)NC(=O)CNC(=O)[C@@H]2CCCN2C(=O)[C@H](CCCCNC(=O)/C=N/O[C@H]2O[C@H](CO)[C@@H](O)[C@H](O)[C@@H]2O)NC1=O` [Compound 14] came in with a dissociation constant (Kd) of 21 ± 4 nM. Where the note is “LecA”, the “–ΔH (binding enthalpy)” value lay in the range of 51.6 to 58.1 kcal/mol; the “n (stoichiometry, glycocluster molecules per lectin monomer)” value is recorded as 0.16; the “–ΔG” value was 10.5 kcal/mol; the “–ΔH” value was 58.13 ± 4.54 kcal/mol. Moreover, under “LecA”, the “−TΔS” value is 47.6 kcal/mol; the “α (relative potency compared to the monovalent compound)” value is recorded as 7,142; the “β (relative potency per sugar unit)” value is 900 and 893.
As to `C[C@@H]1NC(=O)[C@H](CCCCNC(=O)/C=N/OCC(=O)NCCCC[C@@H]2NC(=O)[C@H](CCCCn3cc(CO[C@@H]4O[C@H](CO)[C@H](O)[C@H](O)[C@H]4O)nn3)NC(=O)CNC(=O)[C@@H]3CCCN3C(=O)[C@H](CCCCn3cc(CO[C@@H]4O[C@H](CO)[C@H](O)[C@H](O)[C@H]4O)nn3)NC(=O)[C@H](C)NC(=O)[C@H](CCCCn3cc(CO[C@@H]4O[C@H](CO)[C@H](O)[C@H](O)[C@H]4O)nn3)NC(=O)CNC(=O)[C@@H]3CCCN3C(=O)[C@H](CCCCn3cc(CO[C@@H]4O[C@H](CO)[C@H](O)[C@H](O)[C@H]4O)nn3)NC2=O)NC(=O)CNC(=O)[C@@H]2CCCN2C(=O)[C@H](CCCCNC(=O)/C=N/OCC(=O)NCCCC[C@@H]2NC(=O)[C@H](CCCCn3cc(CO[C@@H]4O[C@H](CO)[C@H](O)[C@H](O)[C@H]4O)nn3)NC(=O)CNC(=O)[C@@H]3CCCN3C(=O)[C@H](CCCCn3cc(CO[C@@H]4O[C@H](CO)[C@H](O)[C@H](O)[C@H]4O)nn3)NC(=O)[C@H](C)NC(=O)[C@H](CCCCn3cc(CO[C@@H]4O[C@H](CO)[C@H](O)[C@H](O)[C@H]4O)nn3)NC(=O)CNC(=O)[C@@H]3CCCN3C(=O)[C@H](CCCCn3cc(CO[C@@H]4O[C@H](CO)[C@H](O)[C@H](O)[C@H]4O)nn3)NC2=O)NC(=O)[C@H](CCCCN)NC(=O)[C@H](CCCCNC(=O)/C=N/OCC(=O)NCCCC[C@@H]2NC(=O)[C@H](CCCCn3cc(CO[C@@H]4O[C@H](CO)[C@H](O)[C@H](O)[C@H]4O)nn3)NC(=O)CNC(=O)[C@@H]3CCCN3C(=O)[C@H](CCCCn3cc(CO[C@@H]4O[C@H](CO)[C@H](O)[C@H](O)[C@H]4O)nn3)NC(=O)[C@H](C)NC(=O)[C@H](CCCCn3cc(CO[C@@H]4O[C@H](CO)[C@H](O)[C@H](O)[C@H]4O)nn3)NC(=O)CNC(=O)[C@@H]3CCCN3C(=O)[C@H](CCCCn3cc(CO[C@@H]4O[C@H](CO)[C@H](O)[C@H](O)[C@H]4O)nn3)NC2=O)NC(=O)CNC(=O)[C@@H]2CCCN2C(=O)[C@H](CCCCNC(=O)/C=N/OCC(=O)NCCCC[C@@H]2NC(=O)[C@H](CCCCn3cc(CO[C@@H]4O[C@H](CO)[C@H](O)[C@H](O)[C@H]4O)nn3)NC(=O)CNC(=O)[C@@H]3CCCN3C(=O)[C@H](CCCCn3cc(CO[C@@H]4O[C@H](CO)[C@H](O)[C@H](O)[C@H]4O)nn3)NC(=O)[C@H](C)NC(=O)[C@H](CCCCn3cc(CO[C@@H]4O[C@H](CO)[C@H](O)[C@H](O)[C@H]4O)nn3)NC(=O)CNC(=O)[C@@H]3CCCN3C(=O)[C@H](CCCCn3cc(CO[C@@H]4O[C@H](CO)[C@H](O)[C@H](O)[C@H]4O)nn3)NC2=O)NC1=O` [Compound 20], the “lower β factor than 18” value (LecA, 20 versus 18) is recorded as 2.5. Further, where the note is “LecA”, the “–ΔH (binding enthalpy)” value came to 90.3 kcal/mol; the “n (stoichiometry, glycocluster molecules per lectin monomer)” value is 0.09; the “–ΔG” value amounted to 10.7 kcal/mol; the “–ΔH” value is 90.49 ± 3.59 kcal/mol. Moreover, where the note is “LecA”, the “−TΔS” value was 79.78 kcal/mol; the “α (relative potency compared to the monovalent compound)” value is 10,000 and 10,714; the “β (relative potency per sugar unit)” value amounted to 670. The “binding to LecA in words” value (LecA, abstract) is on record as “nanomolar affinity”.
